The values below come from ChEMBL document CHEMBL1124302, “Nucleoside conjugates. 10. Synthesis and antitumor activity of 1-beta-D-arabinofuranosylcytosine 5'-diphosphate-1,2-dipalmitins” (J Med Chem, 1988).

Several values for one entry are separate records, joined by “and”; a condition that tells them apart may be missing. Equal values may be shown once.

Common to all, as to format: functional
The subject of assay [1] is Mus musculus. In words: Weight change on day 8 in L1210/ara-C (I) Lymphoid Leukemia in mice( ip implanted) at a dose of 80 mg/kg/day (qd=1-5). The note with it: route intraperitoneal.
Assay [2] is filed under the species Mus musculus. As to the kind of experiment: Percentage increase in life span after 17-29 days.
Assay [3] relates to Mus musculus. As to the kind of experiment: No of survivors after 45 days ata dose of 80 mg/kg/day.
In assay [4] the test system is Mus musculus. In words: Weight change on day 8 in L1210/ara-C (I) Lymphoid Leukemia in mice( ip implanted) at a dose of 400 mg/kg/day (qd=1). The conditions noted are these: route intraperitoneal.
For assay [5], the species on record is Mus musculus. In words: Percentage increase in life span after 17-35 days.
The subject of assay [6] is Mus musculus. As to the kind of experiment: No of survivors after 45 days ata dose of 400 mg/kg/day.
For assay [7], the system named is Mus musculus. In words: Weight change on day 8 in L1210/ara-C (I) Lymphoid Leukemia in mice( ip implanted) at a dose of 60 mg/kg/day (qd=1-5). The note with it: route intraperitoneal.
The species entered for assay [8] is Mus musculus. As to the kind of experiment: Percentage increase in life span after 29->45 days.
For assay [9], the species on record is Mus musculus. As to the kind of experiment: Dose producing greatest increase in life span expressed as optimum dose (L1210/ara-C II) (qd 1).
Assay [10] concerns Mus musculus. As to the kind of experiment: No of survivors after 45 days ata dose of 300 mg/kg/day.
The species named for assay [11] is Mus musculus. In words: Percentage increase in life span after 8-9 days.
In assay [12] the test system is Mus musculus. In words: No of survivors after 45 dose ata dose of 133 mg/kg/day.
In assay [13] the test system is Mus musculus. As to the kind of experiment: No of survivors after 45 days ata dose of 300 60 mg/kg/day.
For assay [14], the species on record is Mus musculus. In words: Dose producing greatest increase in life span expressed as optimum dose (L1210/ara-C I) (qd 1,5,9).
Assay [15] deals with Mus musculus. In words: No of survivors after 45 dose ata dose of 300 mg/kg/day.
The species entered for assay [16] is Mus musculus. In words: Percentage increase in life span after 7-8 days.
For assay [17], the system named is Mus musculus. In words: Weight change on day 8 in L1210/ara-C (I) Lymphoid Leukemia in mice( ip implanted) at a dose of 300 mg/kg/day (qd=1). The note with it: route intraperitoneal.
For assay [18], the species on record is Mus musculus. In words: Percentage increase in life span after 8->45 days.
Assay [19] has as its system Mus musculus. As to the kind of experiment: Weight change on day 8 in L1210/ara-C (I) Lymphoid Leukemia in mice( ip implanted) at a dose of 133 mg/kg/day (qd=1,5,9). The note with it: route intraperitoneal.
The test system of assay [20] is Mus musculus. As to the kind of experiment: No of survivors after 45 dose ata dose of 60 mg/kg/day.
For assay [21], the species on record is Mus musculus. As to the kind of experiment: Percentage increase in life span after 35->45 days.
For assay [22], the species on record is Mus musculus. As to the kind of experiment: Percentage increase in life span after 7-14 days.
Assay [23] concerns Mus musculus. In words: No of survivors after 45 days ata dose of 95 and 190 mg/kg/day.
The species entered for assay [24] is Mus musculus. As to the kind of experiment: Percentage increase in life span after 9-11 days.
Assay [25] deals with Mus musculus. As to the kind of experiment: Weight change on day 8 in L1210/ara-C (I) Lymphoid Leukemia in mice( ip implanted) at a dose of 19 and 38 mg/kg/day (qd=1-5). The conditions noted are these: route intraperitoneal.
Assay [26] relates to Mus musculus. As to the kind of experiment: No of survivors after 45 days ata dose of 19 and 38 mg/kg/day.
Assay [27] has as its system Mus musculus. As to the kind of experiment: Weight change on day 8 in L1210/ara-C (I) Lymphoid Leukemia in mice( ip implanted) at a dose of 95 and 190 mg/kg/day (qd=1). The note with it: route intraperitoneal.
The test system of assay [28] is Mus musculus. As to the kind of experiment: weight change on day 8 in L1210/ara-C (I) Lymphoid Leukemia in mice( ip implanted) at a dose of 19 and 38 mg/kg/day. The note with it: route intraperitoneal.
The species entered for assay [29] is Mus musculus. In words: Percentage increase in life span after 11-12 days.
Assay [30] concerns Mus musculus. As to the kind of experiment: Weight change on day 8 in L1210/ara-C (I) Lymphoid Leukemia in mice( ip implanted) at a dose of 95 and 190 mg/kg/day. The conditions noted are these: route intraperitoneal.
Assay [31] is filed under the species Mus musculus. In words: Percentage increase in life span after 10 days.
Assay [32] is filed under the species Mus musculus. As to the kind of experiment: Percentage increase in life span after 12-13days.
For assay [33], the system named is Mus musculus. In words: No of survivors after 45 days ata dose of 60 mg/kg/day.
For assay [34], the species on record is Mus musculus. As to the kind of experiment: Percentage increase in life span after 9-12 days.
The test system of assay [35] is Mus musculus. As to the kind of experiment: weight change on day 8 in L1210/ara-C (I) Lymphoid Leukemia in mice( ip implanted) at a dose of 60 mg/kg/day (qd=1-5). The conditions noted are these: route intraperitoneal.
Assay [36] concerns Mus musculus. In words: weight change on day 8 in L1210/ara-C (I) Lymphoid Leukemia in mice( ip implanted) at a dose of 100 mg/kg/day (qd=1,5,9). The note with it: route intraperitoneal.
The species named for assay [37] is Mus musculus. As to the kind of experiment: Percentage increase in life span after 13-15 days.
Assay [38] concerns Mus musculus. As to the kind of experiment: No of survivors after 45 days at a dose of 400 mg/kg/day.
Assay [39] deals with Mus musculus. In words: No of survivors after 45 days ata dose of 100 mg/kg/day.
Assay [40] relates to Mus musculus. In words: Weight change on day 8 in L1210/ara-C (I) Lymphoid Leukemia in mice( ip implanted) at a dose of 60 mg/kg/day (qd=1-9). The conditions noted are these: route intraperitoneal.
Assay [41] is filed under the species Mus musculus. In words: Percentage increase in life span after 17-21 days.
The species entered for assay [42] is Mus musculus. As to the kind of experiment: Percentage increase in life span after 7 days.
The subject of assay [43] is Mus musculus. In words: Weight change on day 8 in L1210/ara-C (I) Lymphoid Leukemia in mice( ip implanted) at a dose of 60 mg/kg/day (qd=1-15). The note with it: route intraperitoneal.
Assay [44] concerns Mus musculus. In words: (§1) No of survivors after 45 days at a dose of 200 mg/kg/day.
The species named for assay [45] is Mus musculus. As to the kind of experiment: Dose producing greatest increase in life span expressed as optimum dose (L1210/ara-C I) (qd 1-9).
Assay [46] concerns Mus musculus. As to the kind of experiment: Weight change on day 8 in L1210/ara-C (I) Lymphoid Leukemia in mice( ip implanted) at a dose of 200 mg/kg/day (qd=1). The note with it: route intraperitoneal.
The subject of assay [47] is Mus musculus. In words: No of survivors after 45 days at a dose of 300 mg/kg/day.
In assay [48] the test system is Mus musculus. As to the kind of experiment: (§2) No of survivors after 45 days at a dose of 100 mg/kg/day.
Assay [49] is filed under the species Mus musculus. In words: Dose producing greatest increase in life span expressed as optimum dose (L1210/ara-C I) (qd 1).
The species named for assay [50] is Mus musculus. As to the kind of experiment: Dose producing greatest increase in life span expressed as optimum dose (L1210/ara-C I) (qd 1-15).
The species entered for assay [51] is Mus musculus. As to the kind of experiment: Percentage increase in life span after 15-18 days.
Assay [52] concerns Mus musculus. In words: (§3) No of survivors after 45 days at a dose of 60 mg/kg/day.
The species entered for assay [53] is Mus musculus. In words: Dose producing greatest increase in life span expressed as optimum dose (L1210/ara-C I) (qd 1-5).
Assay [54] has as its system Mus musculus. As to the kind of experiment: Weight change on day 8 in L1210/ara-C (I) Lymphoid Leukemia in mice( ip implanted) at a dose of 100 mg/kg/day (qd=1,5,9). The note with it: route intraperitoneal.
Assay [55] has as its system Mus musculus. The description is as §2. This is another data set of the same source.
For assay [56], the system named is Mus musculus. The description is as §3. This is another data set of the same source.
Assay [57] is filed under the species Mus musculus. In words: Dose producing greatest increase in life span expressed as optimum dose (L1210/ara-C II) (qd 1-5).
For assay [58], the system named is Mus musculus. Described as §1. The source holds these as a separate data set.

As to `CCCCCCCCCCCCCCCC(=O)OC[C@@H](COP(=O)(O)OP(=O)(O)OC[C@H]1O[C@@H](n2ccc(N)nc2=O)[C@@H](O)[C@@H]1O)OC(=O)CCCCCCCCCCCCCCC`, the Weight change was -0.48 g mouse-1 in [1] and 0.18 g mouse-1 in assay [4]. The ILS is 121% in assay [2] and 100% in [5]. The No. of survivors in assay [3] and in assay [6] was 0 in each case.
Take `CCCCCCCCCCCCCCCC(=O)OC[C@H](COP(=O)(O)OP(=O)(O)OC[C@H]1O[C@@H](n2ccc(N)nc2=O)[C@@H](O)[C@@H]1O)OC(=O)CCCCCCCCCCCCCCC`: the Weight change was -2.72 g mouse-1 in assay [7], -0.04 g mouse-1 in assay [17] and -0.53 g mouse-1 in assay [19]. Moreover, the ILS in [8] is >400%; in assay [11], -11%; in [16] it was -11%; in assay [18], >400%; in assay [21], >374%. The Optimal dose turned out to be 300 mg·µM/kg in assay [9] and 133 mg·µM/kg in assay [14]. The No. of survivors in [10] is given as 0; in assay [12], 5; in assay [13], 0; in assay [15], 4; in assay [20], 5.
Turning to `CCCCCCCCCCCCCCCC(=O)OC[C@H](COP(=O)(O)O)OC(=O)CCCCCCCCCCCCCCC.Nc1ccn([C@@H]2O[C@H](COP(=O)(O)O)[C@@H](O)[C@@H]2O)c(=O)n1`, the ILS in assay [22] came to 16%; in [24], 5%. In addition, the No. of survivors in assay [23] and in assay [26] was 0 throughout. Moreover, the Weight change in assay [25] is given as -1.08 g mouse-1; in assay [27] it was -0.5 g mouse-1.
For `CCCCCCCCCCCCCCCC(=O)OC[C@@H](COP(=O)(O)O)OC(=O)CCCCCCCCCCCCCCC.Nc1ccn([C@@H]2O[C@H](COP(=O)(O)O)[C@@H](O)[C@@H]2O)c(=O)n1`, the No. of survivors in [23] and in assay [26] was 0 throughout. Also, the Weight change in [28] is -1.58 g mouse-1; in [30], -0.82 g mouse-1. For the same molecule, the results for the ILS in [29] and in assay [31] were 16% and 5%, respectively.
Turning to `CCCCCCCCCCCCCCCC(=O)OCC(COP(=O)(O)OP(=O)(O)OC[C@H]1O[C@@H](n2ccc(N)nc2=O)[C@@H](O)[C@@H]1O)OC(=O)CCCCCCCCCCCCCCC` (mixture of isomers), the ILS is listed as 317% in assay [32], >400% in assay [34] and 233% in assay [37]. Moreover, the Weight change is -2.07 g mouse-1 in assay [4], -2.92 g mouse-1 in [35] and -1.35 g mouse-1 in assay [36]. Further, the No. of survivors in [33] came out at 2; in assay [38], 4; in [39] it was 2. The molecule further gave an Optimal dose in [14] of 100 mg·µM/kg.
As for `Nc1ccn([C@@H]2O[C@H](CO)[C@@H](O)[C@@H]2O)c(=O)n1` [CYTARABINE], the Weight change in [40] is recorded as -1.8 g mouse-1; in assay [7], -0.87 g mouse-1; in assay [43], -0.93 g mouse-1; in assay [46] it was 3.6 g mouse-1; in assay [54] it was 2.6 g mouse-1. Also, the ILS is 147% in assay [41]; -22% in assay [42]; 50% in assay [32]; 17% in assay [34]; -22% and -11% in [16]; 82% in assay [51]. Besides, the ILS in [37] was 65%. Moreover, the No. of survivors in assay [44], in assay [47], in assay [48], in [52], in assay [55] and in assay [56] was 0 in each case. In assay [58], this molecule registered a No. of survivors of 0. In addition, the Optimal dose in [45] is 60 µM/kg; in assay [14], 100 µM/kg; in assay [49] it was 200 µM/kg; in [50] it was 60 µM/kg; in [53] it was 60 µM/kg; in assay [57], 100 µM/kg and 200 µM/kg and 300 µM/kg.
